Laboratory results as given in paper PMC9739105, “Myotoxin-3 from the Pacific Rattlesnake Crotalus oreganus oreganus Venom Is a New Microtubule-Targeting Agent” (Molecules, 2022).
Where no end group is shown, it is not given here.

Assays:
[1] = test system: bacteria/fungi (anti-microbial activity); conditions: without disulfide bonds; ref [18],[19]; cited from earlier work
MCF-7 cells = conditions: ref [30]; cited from earlier work
Text: (§1) We also observed a different response of MCF-7 and U87 cells when measuring cell viability upon myotoxin-3 treatment. […] The tubulin isotype composition impacts the structural properties of microtubules and tunes their dynamics. Tubulin is also subjected to a large diversity of post-translational modifications that a ...

HeLa cells = conditions: ref [30]; cited from earlier work
Text: as §1

cell = conditions: ref [24]; cited from earlier work
Text: Moreover, myotoxin-3 altered the dynamics of microtubules in MCF-7 cells (Table 1). […] Disturbing the dynamic instability of microtubules is a hallmark o ...

[2] = reference not given; cited from earlier work
Text: In summary, peak 1 contains two 45-residue peptides, i.e., myotoxin-3 (45-residue His^5-myotoxin-3) and one isoform with Leucine at position 5 (45-residue Leu^5-myotoxin-3). Peak 2 contains two shorter isoforms (43 residues) of myotoxin-3 with either Histidine (43-residue His^5-myotoxin-3) or Leucine at position 5 (43-residue Leu^5-myotoxin-3) (Figure 3). This structure resemblance explains the similarity in their chromatographic behavior.

EB1 = conditions: through phosphorylation of EB1 by GSK3; ref [34]; cited from earlier work
[3] = biological target: lamb brain αβ-tubulin heterodimer (lamb (purified from lamb brain)); test: ITC; PEAQ-ITC, 20 °C, 55 µM tubulin in the cell, 2.2 mM myotoxin 3 in the syringe, 20 mM sodium phosphate pH 6.5, 1 mM TCEP, 0.1 mM GTP (non-assembly buffer), one-set-of-sites model

## DTT-reduced crotamine: DTT-reduced crotamine (YKQCHKKGGHCFPKEKICLPPSSDFGKMDCRWRWKCCKKGSG; DTT-reduced; UniProt Q9PWF3 23-64, looked up)
[1]
  Antimicrobial activity: kept their antimicrobial activity

## CC[C@]1(O)C[C@H]2CN(CCc3c([nH]c4ccccc34)[C@@](C(=O)OC)(c3cc4c(cc3OC)N(C=O)[C@H]3[C@@](O)(C(=O)OC)[C@H](OC(C)=O)[C@]5(CC)C=CCN6CC[C@]43[C@@H]65)C2)C1 [vincristine]
MCF-7 cells
  Response of cells to vincristine: reattached to the culture flask after a failed mitosis and remained viable
HeLa cells
  Response of cells to vincristine: detached and died

## crotamine
cell
  Cell penetration: cell-penetrating properties
[2]
  Anti-proliferative effect: displaying an anti-proliferative effect

## C[C@@H]1O[C@@H](O[C@@H]2C=C3CC[C@@H]4[C@H](CC[C@]5(C)[C@@H](c6ccc(=O)oc6)CC[C@]45O)[C@@]3(C)CC2)[C@H](O)[C@H](O)[C@H]1O [proscillaridin A]
EB1
  Effect on microtubule dynamics: affecting microtubule dynamics through the phosphorylation of EB1 by GSK3

## C[C@]12CC[C@H](O)C[C@H]1CC[C@@H]1[C@@H]2CC[C@]2(C)[C@@H](c3ccc(=O)oc3)CC[C@]12O [bufalin]
EB1
  Effect on microtubule dynamics: affecting microtubule dynamics through the phosphorylation of EB1 by GSK3

## non-structured crotamine: non-structured crotamine (without disulfide bonds) (YKQCHKKGGHCFPKEKICLPPSSDFGKMDCRWRWKCCKKGSG; without disulfide bonds; UniProt Q9PWF3 23-64, looked up)
[1]
  Antimicrobial activity: keeps its anti-microbial activity

## non-structured recombinant crotamine: non-structured recombinant crotamine expressed in bacteria (YKQCHKKGGHCFPKEKICLPPSSDFGKMDCRWRWKCCKKGSG; also: recombinant, without disulfide bonds; UniProt Q9PWF3 23-64, looked up)
[1]
  Antimicrobial activity: kept their antimicrobial activity

## YKRCHKKGGHCFPKTVICLPPSSDFGKMDCRWKWKCCKKGSVNNA (cysteines not oxidized (no disulfide bonds)) [synthetic non-oxidized myotoxin-3 (without disulfide bonds)]
[3]
  Kd: 5.3 µM
[3]; scale: myotoxin-3 molecules per tubulin heterodimer
  stoichiometry N: 2
